Results as given in patent US10988459B2 (priority 2015, dated 2021).

Biological target: human RIP1 kinase domain (2-375) (Homo sapiens (Human), UniProt Q13546)
Experiment: biochemical
Format: biochemical
Settings: Table 1; apparent Ki (Morrison tight-binding fit); 50 nM RIP1 kinase domain, 50 uM ATP, 2 hours incubation; read-out: RIP1 Ki
Method in brief: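 Ki^app comes from Morrison tight-binding fits of fractional activity versus compound concentration. Activity was read as ADP production, via tracer displacement lowering fluorescence polarization (633 nm laser). Conditions: 2 h, 50 nM insect-cell-expressed enzyme, 50 uM ATP, 30 mM MgCl2, 1 mM DTT, 0.5% DMSO, pH 7.5 Hepes.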

human RIP1 kinase domain (2-375), sequence (Q13546 2-375): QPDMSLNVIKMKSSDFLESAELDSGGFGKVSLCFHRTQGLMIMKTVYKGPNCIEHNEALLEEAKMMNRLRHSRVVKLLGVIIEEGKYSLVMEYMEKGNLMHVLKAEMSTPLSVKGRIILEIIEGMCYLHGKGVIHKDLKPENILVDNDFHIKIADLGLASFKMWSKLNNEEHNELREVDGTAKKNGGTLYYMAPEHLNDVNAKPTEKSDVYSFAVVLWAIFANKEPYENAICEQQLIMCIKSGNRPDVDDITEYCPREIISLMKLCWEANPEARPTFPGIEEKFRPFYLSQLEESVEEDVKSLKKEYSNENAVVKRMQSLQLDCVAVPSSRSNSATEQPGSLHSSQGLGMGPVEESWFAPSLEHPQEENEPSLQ

SMILES	Ki
Cc1cc2n(n1)CC[C@H](NC(=O)c1nnc(Cc3ccccc3)[nH]1)C(=O)N2C [Example 77, (S)-5-benzyl-N-(2,4-dimethyl-5-oxo-5,6,7,8-tetrahydro-4H-pyrazolo[1,5-a][1,3]diazepin-6-yl)-4H-1,2,4-triazole-3-carboxamide]	58 nM
CN1C(=O)[C@@H](NC(=O)c2n[nH]c3c2CC2CC2(C)C3)COc2ccccc21 (stereo partly drawn) [Example 1, 5a-methyl-N—((S)-5-methyl-4-oxo-2,3,4,5-tetrahydrobenzo[b][1,4]oxazepin-3-yl)-1,4,4a,5,5a,6-hexahydrocyclopropa[f]indazole-3-carboxamide]	4700 nM

Same assay, conditions: Table 5; apparent Ki (Morrison tight-binding fit); 50 nM RIP1 kinase domain, 50 uM ATP, 2 hours incubation; read-out: Ki

SMILES	Ki
CN1C(=O)[C@@H](NC(=O)c2cc3c(-c4ccccc4F)cccn3n2)COc2ccccc21 [Example 708, 4-(2-fluorophenyl)-N-[(3S)-5-methyl-4-oxo-2,3-dihydro-1,5-benzoxazepin-3-yl]pyrazolo[1,5-a]pyridine-2-carboxamide]	4 nM
CN1C(=O)C(NC(=O)c2ncn(Cc3ccccc3)n2)CCn2nc(Cn3cccn3)cc21 (racemic) [Example 705, 1-benzyl-N-[4-methyl-5-oxo-2-(pyrazol-1-ylmethyl)-7,8-dihydro-6H-pyrazolo[1,5-a][1,3]diazepin-6-yl]-1,2,4-triazole-3-carboxamide]	114 nM
C[C@]1(C(F)(F)F)OCc2cnc(C(=O)N[C@H]3CCc4cc(F)cc(F)c4NC3=O)cc21 [Example 746, (1S)-1-methyl-N-[(3S)-7,9-difluoro-2-oxo-1,3,4,5-tetrahydro-1-benzazepin-3-yl]-1-(trifluoromethyl)-3H-furo[3,4-c]pyridine-6-carboxamide]	23 nM
CN1C(=O)[C@@H](NC(=O)c2ncn(Cc3ccccc3)n2)CCn2nc(CNCC(F)(F)F)cc21 (single isomer, unassigned) [Example 789]	68 nM
CN1C(=O)[C@@H](NC(=O)c2nc3n(n2)CCNC3C(F)(F)F)COc2ccccc21 (stereo partly drawn) [Example 731, N—((S)-5-methyl-4-oxo-2,3,4,5-tetrahydrobenzo[b][1,4]oxazepin-3-yl)-8-(trifluoromethyl)-5,6,7,8-tetrahydro-[1,2,4]triazolo[1,5-a]pyrazine-2-carboxamide]	300 nM
CN1C(=O)[C@@H](NC(=O)c2nc3n(n2)CCN(C)C3c2ccccc2)COc2ccccc21 (stereo partly drawn) [Example 786, 7-methyl-N-[(3S)-5-methyl-4-oxo-2,3-dihydro-1,5-benzoxazepin-3-yl]-8-phenyl-6,8-dihydro-5H-[1,2,4]trizolo [1,5-a]pyrazine-2-carboxamide]	112 nM
Cc1cc2n(n1)CC[C@H](NC(=O)c1cc3c(-c4ccccc4)cccn3n1)C(=O)N2C [Example 714, (S)—N-(2,4-dimethyl-5-oxo-5,6,7,8-tetrahydro-4H-pyrazolo[1,5-a][1,3]diazepin-6-yl)-4-phenylpyrazolo[1,5-a]pyridine-2-carboxamide]	13 nM

Same assay, conditions: human RIP1 kinase domain (2-375), 50 uM ATP, 2 hours incubation, Transcreener ADP assay; read-out: RIP1 Ki

SMILES	Ki
CN1C(=O)[C@@H](NC(=O)c2nnn3c2C[C@H](C(F)(F)F)CC3)COc2ccccc21 [Example 149, (R)-N-((S)-5-methyl-4-oxo-2,3,4,5-tetrahydrobenzo[b][1,4]oxazepin-3-yl)-5-(trifluoromethyl)-4,5,6,7-tetrahydro-[1,2,3]triazolo[1,5-a]pyridine-3-carboxamide]	64.3 nM
CC(C)n1ncc2c1OC[C@H](NC(=O)c1cn(Cc3ccc(F)c(F)c3)cn1)C(=O)N2C [Example 180, (S)-1-(3,4-difluorobenzyl)-N-(1-isopropyl-4-methyl-5-oxo-4,5,6,7-tetrahydro-1H-pyrazolo[3,4-b][1,4]oxazepin-6-yl)-1H-imidazole-4-carboxamide]	8500 nM
CN1C(=O)C(NC(=O)c2ncn(Cc3ccccc3)n2)CCn2ccnc21 (centres unmarked) [Example 195, 1-benzyl-N-(9-methyl-8-oxo-6,7,8,9-tetrahydro-5H-imidazo[1,2-a][1,3]diazepin-7-yl)-1H-1,2,4-triazole-3-carboxamide]	123 nM
CCn1nc(C(=O)N[C@H]2COc3ccccc3N(C)C2=O)c2c1CC[C@H](C(F)(F)F)C2 (single isomer, unassigned) [Example 185]	825 nM
CN1C(=O)C(NC(=O)c2cn(Cc3ccccc3)nn2)CCn2nc3c(c21)CCCC3 (centres unmarked) [Example 135, 1-benzyl-N-(1-methyl-2-oxo-2,3,4,5,8,9,10,11-octahydro-1H-[1,3]diazepino[1,2-b]indazol-3-yl)-1H-1,2,3-triazole-4-carboxamide]	390 nM

Same assay, conditions: human RIP1 kinase domain (2-375), Transcreener ADP assay, 50 uM ATP, 2 hours incubation; read-out: RIP1 Ki

SMILES	Ki
CN1C(=O)[C@@H](NC(=O)c2nnc(Cc3ccccc3)[nH]2)CCn2nc(C3CC3(F)F)cc21 (stereo partly drawn) [Example 285, 5-benzyl-N-((6S)-2-(2,2-difluorocyclopropyl)-4-methyl-5-oxo-5,6,7,8-tetrahydro-4H-pyrazolo[1,5-a][1,3]diazepin-6-yl)-4H-1,2,4-triazole-3-carboxamide]	219 nM
Cc1nn2c(c1C)N(C)C(=O)[C@@H](NC(=O)c1nnc(Cc3ccccc3)[nH]1)CC2 [Example 300, (S)-5-benzyl-N-(2,3,4-trimethyl-5-oxo-5,6,7,8-tetrahydro-4H-pyrazolo[1,5-a][1,3]diazepin-6-yl)-4H-1,2,4-triazole-3-carboxamide]	50.4 nM
CC(c1ccccc1)n1cnc(C(=O)N[C@H]2CCn3nc(C4CC4)cc3N(C)C2=O)n1 (stereo in doubt) [Example 292, (S)—N-(2-cyclopropyl-4-methyl-5-oxo-5,6,7,8-tetrahydro-4H-pyrazolo[1,5-a][1,3]diazepin-6-yl)-1-(1-phenylethyl)-1H-1,2,4-triazole-3-carboxamide]	100 nM

Same assay, conditions: read-out: RIP1 Ki

SMILES	Ki
CN1C(=O)[C@@H](NC(=O)c2n[nH]c3c2C[C@@H](C(C)(C)C)CC3)COc2ccccc21 [Example 58, (S)-5-(tert-butyl)-N-((S)-5-methyl-4-oxo-2,3,4,5-tetrahydrobenzo[b][1,4]oxazepin-3-yl)-4,5,6,7-tetrahydro-1H-indazole-3-carboxamide]	121 nM

Same assay, conditions: tight-binding apparent inhibition constant; human RIP1 kinase domain (2-375) 50 nM, 50 uM ATP, 2 hours; read-out: Ki

SMILES	Ki
CN1C(=O)C(NC(=O)c2ncn(Cc3ccccc3)n2)CCn2nc(CN3CCC(F)(F)C3)cc21 (single isomer, unassigned) [Example 448, 1-benzyl-N-(2-((3,3-difluoropyrrolidin-1-yl)methyl)-4-methyl-5-oxo-5,6,7,8-tetrahydro-4H-pyrazolo[1,5-a][1,3]diazepin-6-yl)-1H-1,2,4-triazole-3-carboxamide]	214 nM
CN1C(=O)[C@@H](NC(=O)c2ncn(Cc3ccc(F)cc3)n2)CCn2nc(C3CC3)cc21 (stereo in doubt) [Example 681, 1-[(4-fluorophenyl)methyl]-N-[rac-(6S)-2-cyclopropyl-4-methyl-5-oxo-7,8-dihydro-6H-pyrazolo[1,5-a][1,3]diazepin-6-yl]-1,2,4-triazole-3-carboxamide]	23.7 nM
CCC[C@@]1(C)OCc2cnc(C(=O)N[C@H]3COc4ccccc4N(C)C3=O)nc21 (racemic) [Example 684, rac-(7R)-7-methyl-7-propyl-N-[rao-(3S)-5-methyl-4-oxo-2,3-dihydro-1,5-benzoxazepin-3-yl]-5H-furo[3,4-d]pyrimidine-2-carboxamide]	163 nM
CN1C(=O)[C@@H](NC(=O)c2nc3cccc(-c4ccccc4)n3n2)CCn2nccc21 [Example 375, (S)—N-(4-methyl-5-oxo-5,6,7,8-tetrahydro-4H-pyrazolo[1,5-a][1,3]diazepin-6-yl)-5-phenyl-[1,2,4]triazolo[1,5-a]pyridine-2-carboxamide]	28 nM
O=C(N[C@H]1CCc2cc(F)cc(F)c2NC1=O)c1ncc2c(n1)C1(CCC1)OC2 [Example 618]	24 nM
Cc1cc2n(n1)CC[C@H](NC(=O)c1ncc3c(n1)C1(CCOCC1)OC3)C(=O)N2C [Example 512, N-[(6S)-2,4-dimethyl-5-oxo-7,8-dihydro-6H-pyrazolo[1,5-a][1,3]diazepin-6-yl]spiro[5H-furo[3,4-d]pyrimidine-7,4′-tetrahydropyran]-2-carboxamide]	840 nM
CC[C@H]1CCCc2nc(C(=O)N[C@H]3COc4ccccc4N(C)C3=O)nn21 (racemic) [Example 403, (S)-5-ethyl-N—((S)-5-methyl-4-oxo-2,3,4,5-tetrahydrobenzo[b][1,4]oxazepin-3-yl)-5,6,7,8-tetrahydro-[1,2,4]triazolo[1,5-a]pyridine-2-carboxamide]	81.9 nM
Cc1cc2n(n1)CC[C@H](NC(=O)c1ncn(Cc3ncccc3F)n1)C(=O)N2C [Example 654, 1-[(3-fluoro-2-pyridyl)methyl]-N-(6S)-2,4-dimethyl-5-oxo-7,8-dihydro-6H-pyrazolo[1,5-a][1,3]diazepin-6-yl-1,2,4-triazole-3-carboxamide]	110 nM
CN1C(=O)[C@@H](NC(=O)c2ncc3c(n2)C(C)(C)S(=O)(=O)C3)COc2ccccc21 [Example 556, 7,7-dimethyl-6,6-dioxo-N-[(3S)-5-methyl-4-oxo-2,3-dihydro-1,5-benzoxazepin-3-yl]-5H-thieno[3,4-d]pyrimidine-2-carboxamide]	2700 nM
CN1C(=O)[C@@H](NC(=O)c2ncn(Cc3ccccc3C#N)n2)CCn2nccc21 [Example 603, 1-[(2-cyanophenyl)methyl]-N-(6S)-4-methyl-5-oxo-7,8-dihydro-6H-pyrazolo[1,5-a][1,3]diazepin-6-yl-1,2,4-triazole-3-carboxamide]	370 nM
Cc1cc2n(n1)CC[C@H](NC(=O)c1ncn(Cc3ccccc3Cl)n1)C(=O)N2C [Example 520, 1-[(2-chlorophenyl)methyl]-N-(6S)-2,4-dimethyl-5-oxo-7,8-dihydro-6H-pyrazolo[1,5-a][1,3]diazepin-6-yl-1,2,4-triazole-3-carboxamide]	6 nM
